{"source": "patent US4447611A", "about": "“Benzo-fused and heterocyclic fused imidazole anti-ulcer agents” (American Home Products Corporation, priority 1982, dated 1984)", "key": {"[1]": {"biological_target": "T1, H2 histamine receptors (Cavia porcellus, UniProt P47747)", "T1 construct": "from tissue; host or cells: guinea pig right atrium (isolated, spontaneously beating)", "T1 sequence (P47747 whole entry)": "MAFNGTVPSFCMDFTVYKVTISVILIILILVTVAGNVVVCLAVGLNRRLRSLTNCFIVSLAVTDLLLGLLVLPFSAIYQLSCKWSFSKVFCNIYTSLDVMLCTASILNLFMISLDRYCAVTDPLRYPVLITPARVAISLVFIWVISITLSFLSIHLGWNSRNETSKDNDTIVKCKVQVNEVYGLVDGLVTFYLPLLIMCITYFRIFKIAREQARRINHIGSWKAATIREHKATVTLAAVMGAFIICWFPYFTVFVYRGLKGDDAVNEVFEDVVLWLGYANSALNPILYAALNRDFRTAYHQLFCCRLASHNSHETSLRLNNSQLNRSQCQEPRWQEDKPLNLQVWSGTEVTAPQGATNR", "assay": "guinea pig heart atrium test (histamine-induced positive chronotropic response in spontaneously beating right atrium)", "assay_type": "cell-based", "details": "32° C., pH 7.4, 30 minutes after addition of compound, vs histamine dose-response", "procedure": "The guinea pig heart atrium test is carried out as follows:\nThe tissue is allowed to stabilize over 1 hour. Individual contractions are recorded with a force-displacement transducer through a strain gauge coupler. A control dose-response curve to histamine in the above described tissue bath is obtained after which the tissue is washed 3 times and allowed to re-equilibrate to basal rate. The test compound is added to the tissue bath at the desired final concentration. Thirty minutes after addition of the compound, a fresh histamine dose response curve is again obtained. Then the response to histamine in the presence of antagonist is compared to the histamine control response. This procedure is repeated, using fresh tissues, for each concentration of antagonist tested."}, "[2]": {"tested_on": "rat gastric secretion", "assay": "gastric secretion in the pylorus-ligated rat (modified Shay procedure)", "assay_type": "in vivo", "details": "32 mg/kg, interduodenally (i.d.), four hours after ligation, male Charles River rats", "procedure": "The procedures for the results of these tests are presented at the end of the following examples, which will serve to illustrate the present invention.\nThe procedure for testing gastric secretion in the rat, a modification of the procedure of Shay et al., Gastroenterology, 26, 906-13 (1954) is carried out as follows:\nMale Charles River rats weighing 200-300 grams are deprived of food but not water for 24 hours prior to use. Water is, however, withheld during the experiment. The rats are weighed, anesthetized, and the pylorus ligated according to the method of Shay et al. Treatment or vehicle control is then administered interduodenally (i.d.). Rats are housed 2/cage and sacrificed with CO2 four hours after ligation. The stomachs are removed, rinsed, and contents emptied into a graduated centrifuge tube. The tubes are centrifuged for 20 minutes at 2,000 RPM and the volume of gastric juice recorded. Any samples obviously contamined by feces, food or hemolysis are eliminated. An aliquot of each is frozen for later analysis of Na^+, K^+ and Cl^- concentration. The pH is measured and 1 ml. of gastric juice is titrated with 0.1 N NaOH to a pH of 7.0-7.4 Titratable acid output is calculated in microequivalents and the percent inhibition of acid output is calculated as follows: [formula]"}, "[3]": {"details": "cited from earlier work"}}, "data": [{"smiles": "c1cc(CN2CCCCC2)cc(OCCCNc2nc3ccccc3[nH]2)c1", "note": "[A, 2-[3-[3-[(1-piperidinylmethyl)]phenoxy]propylamine]benzimidazole]", "values": [{"measurement": "pA2 Value (apparent dissociation constant of the H2 antagonist)", "setting": "[1]", "value": 7.1}, {"measurement": "% Inhibition (of acid output)", "setting": "[2]", "value": 65, "unit": "%"}]}, {"smiles": "CN/C(=N/CCSCc1nc[nH]c1C)NC#N", "note": "[Cimetidine]", "values": [{"measurement": "confusional states (in words)", "setting": "[3]; elderly patients", "value": "a tendency to cause confusional states in elderly patients"}, {"measurement": "anti-androgenic activity (in words)", "setting": "[3]; patients", "value": "anti-androgenic activity"}, {"measurement": "duration of action (in words)", "setting": "[3]; patients", "value": "short duration of action"}]}]}
